Our source for the receptor activation and AKHR activation values is article PMC5855764, “Analysis of Peptide Ligand Specificity of Different Insect Adipokinetic Hormone Receptors” (International Journal of Molecular Sciences, 2018).

The subject of one assay is HylabAKHR. Put plainly: Aequorin-based bioluminescent calcium assay in CHO-WTA11 cells. The settings on record: peptide at micromolar concentrations; relative to cognate AKH. It is filed as cell-based, Hylobius abietis. The source says: (§1) We expressed the different insect AKH receptors in Chinese hamster ovary (CHO) WTA11 cells, stably expressing apo-aequorin, a zeocin resistance gene and the promiscuous Gα16 subunit coupling to the phospholipase C and Ca^2+ signaling cascade (Euroscreen, Brussels, Belgium). The AKH from each species elicited a clear dose-dependent response in the bioluminescent calcium assay of its conspecific receptor, with an EC50 value in the low nanomolar range (Figure 3).
(§2) We analyzed the activity of the different AKH receptors using CHO-WTA11 cells, which contain a promiscuous Gα16 subunit that will induce an intracellular Ca^2+-increase upon receptor binding independent of the receptors’ natural signaling cascade (see also [48]). […]
(§3) For transfection of the cells (T75 flasks at 60–80% confluency), we dissolved 5 µg pcDNA3.1-receptor or empty pcDNA3.1 vector in 2.5 mL Opti-MEM® (Gibco) supplemented with 12.5 µL Plus™ Reagent of the Lipofectamine LTX Kit (Invitrogen) in 5 mL polystyrene round-bottom tubes. […] We monitored ligand-induced changes in intracellular Ca^2+ in the cells as described below. […]

Assay [1] relates to seven different insect AKH receptors. As to the kind of experiment: Aequorin-based bioluminescent calcium assay in CHO-WTA11 cells, statements for all seven receptors together. It is filed as cell-based. The conditions noted are these: peptide at micromolar concentrations; all analysed AKHRs.
Excerpt: as §1, §2, §3

A further assay has as its system AcypiAKHR. As to the kind of experiment: Aequorin-based bioluminescent calcium assay in CHO-WTA11 cells. The assay is classed as cell-based, Acyrthosiphon pisum. The conditions noted are these: peptide at micromolar concentrations; relative to cognate AKH.
Excerpt: as §1, §2, §3

The test system of the next assay is TricaAKHR. The description is as above. The conditions noted are these: peptide at micromolar concentrations; relative to cognate AKH. It is filed as cell-based, Tribolium castaneum.
Excerpt: as §1, §2, §3

As to pQ-TFQYSHGWTNamide [Crz, corazonin], the receptor activation entry with HylabAKHR, in the assay with AcypiAKHR and in the assay with TricaAKHR was “very limited activation” each time. The AKHR activation result in assay [1] is “not able to activate any of the AKHRs that were analyzed to same extent as the endogenous AKHs”.
For pQVTF--SRDWNAamide [ACP], the AKHR activation result in assay [1] is “only very low levels of AKHR activation”.
